Experimental findings from patent US20250302792A1, “ACTIVE SUBSTANCES FOR MEDICAL USE” (inflamed pharma GmbH, priority 2022, published 2025) are described below.

The nature of data set [1]: Solubility in octanol, content by UV/VIS spectroscopy and pH. The class given is physicochemical. The note with it: for pH: solubility test in octanol. The procedure:
Solubility tests in octanol were conducted, and the content in the organic phase was examined by UV/VIS spectroscopy, as were the pH values.

For data set [2], the system named is A. fumigatus. The experiment in a line: Hyphae formation of GFP-expressing A. fumigatus conidia in DMEM/BA medium (FIG. 1). It counts as cell-based, Aspergillus fumigatus. The note with it: procaine HCl 0.31 or 1.25-10 mM, 10 h, 37° C. The procedure: (A) Procedure for the treatment method: conidia of a green-fluorescence protein (GFP)-expressing A. fumigatus strain [5*10^6 conidia/well] were sown on cover slips in 24-well plates in 300 μl of DMEM/BA medium (0.2% BSA, 1 mM MgCl2 and 0.9 mM CaCl2) and, in each case supplemented with solvent (H2O), procaine HCl [0.31 (B) or 1.25 (C)—10 mM] or voriconazole [0.2 μg ml^−1], incubated at 37° C., 5% CO2, for 10 h. Subsequently, the fungi were fixed (3.7% formaldehyde in PBS, 30 min, room temperature) and applied to microscope slides with the aid of fluorescent dye solution (Agilent, Santa Clara, CA, USA). The hyphae size was analyzed by (B) Axio Observer.Z1 microscope (Zeiss, Jena, Germany) and the Fiji V 1.52b software (github.com/fiji/fiji). (C) Fungus size was calculated with the particle counter software (github.com/chko90/particle counter). The data are a representation of four experiments (B) or the mean+SD of four experiments with two technical samples in each case (C). Statistical significance was calculated with GraphPad Prism 9.2 (Graphpad Software, Boston, USA) using the one-way ANOVA Dunnett multiple comparison test. P values are indicated by asterisks *p<0.05.

Data set [3] deals with influenza virus A/Puerto Rico/8/34. The class given is cell-based.
Data set [4] has as its system A. fumigatus. It counts as cell-based, Aspergillus fumigatus.
The subject of data set [5] is influenza virus A/Puerto Rico/8/34 (IAV). The class given is cell-based.
Data set [6] has as its system A. fumigatus. The class given is cell-based, Aspergillus fumigatus. The source holds these as a separate data set.
Data set [7] deals with A. fumigatus. The experiment in a line: Hyphae formation of A. fumigatus in a human cell-free system, DMEM with 10% FCS (FIG. 4). The class given is cell-based, Aspergillus fumigatus. Conditions: 10 h. The method, then: (A) Procedure for the treatment method: conidia of a GFP-expressing A. fumigatus strain [5*10^6 conidia/well] was sown on cover slips in 24-well plates and incubated with solvent (H2O) or with the specified concentrations of voriconazole, ProcCluster® (B-C) or procaine HCl (D-E) in DMEM with 10% FCS at 37° C., 5% CO2, for 10 h. Subsequently, the fungi were fixed (3.7% formaldehyde in PBS, 1 h, room temperature) and applied to microscope slides with fluorescent dye solution (Agilent, Santa Clara, CA, USA). (B, D) The growth of A. fumigatus was visualized via internal GFP expression. The scale of the immunofluorescence images corresponds to 100 μm. Detection of immunofluorescence and imaging and image processing were effected with an Axio Observer.Z1 microscope (Zeiss, Jena, Germany) and the Fiji V 1.52b software (github.com/fiji/fiji). (C, E) Fungus size was determined by means of the particle counter software (github.com/chko90/particle counter). Five immunofluorescence images were taken for each sample. The fungus sizes ascertained were normalized and the solvent control was set at 100%. Statistical significance was ascertained by a one-way ANOVA test with Dunnett multiple comparison test using GraphPad Prism 9.2 (Graphpad Software, Boston, USA) (p<0.05 was considered to be the level of statistical significance).

Structures can show the parent of a compound that is named as a salt. Where two headings read alike, the source gives them in different places.

In the case of `CCN(CC)CCOC(=O)c1ccc(N)cc1.O=C(O)O` [Carbonic acid adduct of procaine], the “membrane permeability concluded from solubility in the organic phase” value in data set [1] (octanol) is listed as “membrane-permeable”. Also, the “Content (solubility in octanol, content in the organic phase)” value (“Content” for short) in data set [1] (octanol, UV/VIS spectroscopy) amounted to 74%. The same molecule gave a pH in data set [1] of 7.5.
Regarding `CCN(CC)CCOC(=O)c1ccc(N)cc1` [Procaine, 2-(N,N-diethylamino)ethyl 4-aminobenzoate], in data set [1], the “Content” value is given as “completely dissolved (100%)” and the pH is reported as 8.5.
For `CCN(CC)CCOC(=O)c1ccc(N)cc1` [Procaine hydrochloride, procaine hydrochloride], the “hyphae formation by A. fumigatus” value in data set [2] is “reduces hyphae formation”. Besides, in data set [3], the “pathogenic load of influenza viruses” value is “reduced”. In addition, the “pathogenic load of A. fumigatus” value in data set [4] is “reduced”. In data set [5], the virus load result is “reduced virus load”. Also, the hyphae formation result in data set [6] is “reduced”; in data set [7], “reduced hyphae formation”. The “Content” value in data set [1] (octanol, UV/VIS spectroscopy, hydrochloride) turned out to be 8%; in data set [1] (octanol, UV/VIS spectroscopy, listed as Procaine HCl, hydrochloride) it was 8%. In data set [1] (hydrochloride), the pH is listed as 4.5.
